Data set [1] has as its system chronic mild stress-induced depression model mice. In words: Light-dark test, suppressive effects of anxiety symptoms accompanying mild stress loads. Format: in vivo. As to conditions: normal control 110.74±5.29, stress-loaded control 74.72±4.09. On the procedure:
(§1) Female ddY mice of seven weeks age (n=8 to 12) were subjected to the following procedures: (A) The mice were subjected to forced swimming for 15 minutes, and then to normal breeding for two days. (B) The mice were subjected to breeding in an inclined cage for two days, and then to normal breeding for one day. (C) The mice were subjected to breeding for one day in a cage of which floor mat was made wet and then to normal breeding for one day. (D) The mice were subjected to breeding for one day with a cage rotating at a rate of 180 rotations/minute, and then to normal breeding for one day. Further, after one cycle of (A) to (D) was carried out, (B) to (D) were repeated for two cycles. […]
The compounds of the present invention were administered as a test drug to the chronic mild stress-induced depression model mice of Test Example 3(1) mentioned above, and the model mice were then subjected to light-dark test to evaluate suppressive effects of anxiety symptoms. Specifically, a wooden rectangular apparatus composed of a light chamber and a dark chamber having a height of 50 cm, a length of 50 cm, a width of 25 cm was used, a mouse was placed in a dark chamber and allowed to freely search, and then the number of times invading into a light chamber, and the time staying in the light chamber were recorded for 5 minutes. […]

The test system is the same in data set [2]. The data set can be described thus: Tail suspension test, suppressive effects of depression symptoms accompanying mild stress loads. Format: in vivo. As to conditions: normal control 73.16±9.20, stress-loaded control 157.01±11.97. As for the experimental part: as §1, with “cycles. As such, stress was applied over three weeks in total to prepare chronic mild stress-induced depression model mice.” for “cycles.”
The compounds of the present invention were administered as a test drug to the chronic mild stress-induced depression model mice of Test Example 3(1) mentioned above, and the model mice were then subjected to tail suspension test to evaluate suppressive effects of depression symptoms. […] The observations were made for 6 minutes, and the length of the immobility time, serving as an index of depression symptoms, was measured. […]

The subject of another data set is MAP kinase (ERK1/2). The data set can be described thus: Activation (phosphorylation) of MAP kinase under mild stress loads, hippocampus of chronic mild stress-induced depression model mice. It counts as in vivo. As to conditions: normal control 1.26±0.11, stress-loaded control 0.56±0.04. As for the experimental part:
As to the compounds of the present invention, the activation level of the MAP kinase (ERK1/2) was measured using chronic mild stress-induced depression model mice in the following manner. • (1) Preparation of Chronic Mild Stress-Induced Depression Model Mice and Administration of Test Drug
as §1, with “cycles. As such, stress was applied over three weeks in total to prepare chronic mild stress-induced depression model mice.” for “cycles.”
Each of the MAP kinase (MAPK) and the phosphorylated MAP kinase (pMAPK) was subjected to immunoblot analysis, and 2 μg or 5 μg each of tissue-extracted proteins was subjected to electrophoresis. […] The staining intensity of each band was quantified, and a ratio of pMAPK to MAPK was obtained (n=4 to 7). […]

Data set [3] relates to rats with paclitaxel-induced peripheral nerve disorder. In words: Rat peripheral nerve disorder induced by paclitaxel, von Frey test. It counts as in vivo. To be noted: ip, test drug intraperitoneally, single dose, higher of values 1 and 5 hours after administration, mechanical stimulus of right hind limb, normal threshold 15, read-out: Recovery Rate of 50% Reaction Threshold Value. On the procedure:
The effects of the compounds of the present invention were evaluated for a peripheral nerve disorder which is a side effect induced by the administration of an anti-cancer agent paclitaxel, such as hyperesthesia including allodynia induced by mechanical stimuli, which is a severe pain induced by such tactile stimuli which usually cause no pains. The compound of the present invention was intraperitoneally administered to rats as a test drug to conduct a von Frey test.
Male SD rats of six weeks age (six rats per group) were used as experimental animals, and paclitaxel (2 mg/kg) was intraperitoneally administered every other day for four times in total to prepare rats with paclitaxel-induced peripheral nerve disorder. During the period of 18 to 25 days or during the period of 20 to 27 days after the initiation of paclitaxel administration, the test drug was intraperitoneally administered in a single dose of […], and the following von Frey test was conducted.
The rats of the above (1) were placed in a transparent acrylic cage with a wire-meshed floor and habituated for about three minutes, and the 50% reaction threshold values to the mechanical stimulus of right hind limb were measured before administration of the test drug and after 1 and 5 hours from the initiation of the administration.
The measurement was conducted using von Frey filaments (manufactured by North Coast Medical Inc.) in accordance with the methods of Chaplan, et al. (Journal of Neuroscience Methods, 53(1), 55-63, 1994) and Dixon, et al. (Annual Review of Pharmacology and Toxicology, 20, 441-462, 1980). […] The case where the rat escaped at the instance of removing the filament was also called positive. When the positive reaction was found, stimulus was applied similarly with a filament of one rank weaker, and in the absence of the reaction, stimulus was similarly applied with a filament of one rank stronger, and a point where the reaction changed from negative to positive or from positive to negative was called the first two reactions. Subsequently, stimuli were applied for continuously four times by the same up-down method. A 50% reaction threshold value to the mechanical stimulus was measured using the reaction to the six stimuli in total and then (mean value)±(standard error) for each group was calculated. Incidentally, when stimulus reached to a load of 15.0 g without positive reaction, or when positive reaction continued to a load of 0.4 g, 15.0 g or 0.25 g was adopted as each of 50% reaction threshold values. With regard to the higher 50% reaction threshold value between the 50% threshold values after 1 hour and 5 hours from administration of a test drug, a recovery rate (%) of the 50% reaction threshold value was calculated by the following expression in which 15 was taken as a normal threshold value.
Recovery rate (%) of 50% reaction threshold value=[(50% reaction threshold value after 1 hour or 5 hours from administration of test drug)−(50% reaction threshold value before administration of test drug)]/[(Normal threshold value)−(50% reaction threshold value before administration of test drug)]×100

For data set [4], the system named is transcription factor CREB. The data set can be described thus: Activation (phosphorylation) of CREB under mild stress loads, chronic mild stress-induced depression model mice. To be noted: normal control 0.95±0.09, stress-loaded control 0.50±0.07. It counts as in vivo.
[5] abbreviates: 1,000 μg/kg orally once every day for three weeks.
Setting [6] is: 500 μg/kg orally once every day for three weeks.

By melting point is commonly meant the temperature, or range, at which the solid turns liquid. The molecule `CCCCCCC/C=C/C(=O)N1CCC(C(=O)O)CC1` [Compound 10, 1-((E)-2-Decenoyl)piperidine-4-carboxylic acid] registered a melting point of 88 to 89 °C. Also, in data set [1] (5 minutes, 1,000 μg/kg), the “staying time in the light chamber” value came to 107.05 ± 8.29 s. Also, the immobility time in data set [2] (6 minutes, 1,000 μg/kg) came out at 96.03 ± 25.24 s. Further, the “ratio of pMAPK to MAPK” value in the data set with MAP kinase (ERK1/2) (setting [5]) came to 1.00±0.04. For the same molecule, the change in vivo at 0.3 mg/kg in data set [3] was determined as 44.6%. Moreover, the “ratio of pCREB to CREB” value in data set [4] (setting [5]) was 0.94±0.10.

Take `CCCCCCC/C=C/C(=O)N1CCC(N(C)C)CC1` [Compound 12, 1-((E)-2-decenoyl)-4-dimethylaminopiperidine]: in data set [1] (5 minutes, 500 μg/kg), the “staying time in the light chamber” value was determined as 108.70 ± 12.06 s. In addition, in data set [2] (6 minutes, 500 μg/kg), the immobility time was found to be 69.26 ± 16.41 s. The “ratio of pMAPK to MAPK” value in the data set with MAP kinase (ERK1/2) (setting [6]) was 1.09±0.04. Moreover, the change in vivo at 0.3 mg/kg in data set [3] was determined as 49.7%. Further, the “ratio of pCREB to CREB” value in data set [4] (setting [6]) amounted to 1.08±0.14.

Values taken from patent US9428477B2, “Trans-2-decenoic acid derivative and drug containing same” (NIPPON ZOKI PHARMACEUTICAL CO., LTD., priority 2012, dated 2016).
